Our source for the pest or weed control values is patent US10219516B2, “Molecules having pesticidal utility, and intermediates, compositions, and processes, related thereto” (priority 2015, dated 2019).

Test [1] concerns Beet Armyworm (Spodoptera exigua, LAPHEG). As to the kind of experiment: Bioassay on Beet Armyworm (BAW), 128-well diet tray assay. It is filed as in vivo. The note with it: Species BAW (Beet Armyworm), read-out: BAW (Biological Results, rating). Put shortly:
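Diet in each of eight wells received 50 μg/cm^2 of test molecule (90:10 acetone-water, dried), then one to five second-instar larvae were added. Mortality (%) was scored after five to seven days at 25° C. under 14:10 light-dark and averaged across the wells.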

The subject of test [2] is Cabbage Looper (Trichoplusia ni, TRIPNI). As to the kind of experiment: Bioassay on Cabbage Looper (CL), 128-well diet tray assay. The note with it: Trichoplusia ni; Species CL (Cabbage Looper); read-out: CL (Biological Results, rating). It counts as in vivo. Put shortly:
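Using eight wells per molecule, artificial diet was dosed at 50 μg/cm^2 with compound in 90:10 acetone-water and dried before one to five second-instar larvae were added per well. Covered vented trays were kept at 25° C. with 14:10 light-dark for five to seven days, then per-well percent mortality was recorded and averaged.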

On to `O=C(Nc1ccc([N+](=O)[O-])cc1)c1cc(NC(=O)[C@H]2[C@H](c3cc(Cl)cc(Cl)c3)C2(Cl)Cl)ccc1Cl` (relative stereo) [F137, trans-2-chloro-5-(2,2-dichloro-3-(3,5-dichlorophenyl)cyclopropane-1-carboxamido)-N-(4-nitrophenyl)benzamide], for which the pest or weed control at 50 µg/cm2 in test [1] and in test [2] was 50 to 100% each time.
For `O=C(Nc1cnns1)c1cc(NC(=O)[C@H]2[C@H](c3cc(Cl)cc(Cl)c3)C2(Cl)Cl)ccc1Cl` (relative stereo) [F138, trans-2-Chloro-5-(2,2-dichloro-3-(3,5-dichlorophenyl)cyclopropane-1-carboxamido)-N-(1,2,3-thiadiazol-5-yl)benzamide], the pest or weed control at 50 µg/cm2 in test [1] and in test [2] was 50 to 100% throughout.
Take `O=C(Nc1cc[n+]([O-])cc1)c1cc(NC(=O)[C@H]2[C@H](c3cc(Cl)cc(Cl)c3)C2(Cl)Cl)ccc1Cl` (relative stereo) [F140, trans-4-(2-Chloro-5-(2,2-dichloro-3-(3,5-dichlorophenyl)cyclopropane-1-carboxamido)benzamido)pyridine 1-oxide]: the pest or weed control at 50 µg/cm2 in test [1] and in test [2] was 50 to 100% each time.
For the compound `O=C(Nc1ccc(F)cc1)c1cc(NC(=O)[C@H]2[C@H](c3cc(Cl)cc(Cl)c3)C2(Cl)Cl)cc[n+]1[O-]` (relative stereo) [F141, trans-4-(2,2-Dichloro-3-(3,5-dichlorophenyl)cyclopropane-1-carboxamido)-2-((4-fluorophenyl)carbamoyl)pyridine 1-oxide], the pest or weed control at 50 µg/cm2 in test [1] and in test [2] was 50 to 100% in each case.
Take `CS(=O)(=O)c1ccc(NC(=O)c2cc(NC(=O)[C@H]3[C@H](c4cc(Cl)cc(Cl)c4)C3(Cl)Cl)ccc2Cl)cc1` (relative stereo) [F143, trans-2-Chloro-5-(2,2-dichloro-3-(3,5-dichlorophenyl)cyclopropane-1-carboxamido)-N-(4-(methylsulfonyl)phenyl)benzamide]: the pest or weed control at 50 µg/cm2 in test [1] and in test [2] was 50 to 100% in each case.
For the compound `N#Cc1ccc(NC(=O)c2cc(NC(=O)[C@H]3[C@H](c4cc(Cl)cc(Cl)c4)C3(Cl)Cl)ccc2Cl)c(F)c1` (relative stereo) [F144, trans-2-Chloro-N-(4-cyano-2-fluorophenyl)-5-(2,2-dichloro-3-(3,5-dichlorophenyl)cyclopropane-1-carboxamido)benzamide], the pest or weed control at 50 µg/cm2 in test [1] and in test [2] was 50 to 100% throughout.
Consider `O=C(Nc1ncco1)c1cc(NC(=O)[C@H]2[C@H](c3cc(Cl)cc(Cl)c3)C2(Cl)Cl)ccc1Cl` (relative stereo) [F145, trans-2-Chloro-5-(2,2-dichloro-3-(3,5-dichlorophenyl)cyclopropane-1-carboxamido)-N-(oxazol-2-yl)benzamide], for which the pest or weed control at 50 µg/cm2 in test [1] and in test [2] was 50 to 100% in each case.
For the compound `CSc1ccc(NC(=O)c2cc(NC(=O)[C@H]3[C@H](c4cc(Cl)cc(Cl)c4)C3(Cl)Cl)ccc2Cl)cc1` (relative stereo) [F149, trans-2-Chloro-5-(2,2-dichloro-3-(3,5-dichlorophenyl)cyclopropane-1-carboxamido)-N-(4-(methylthio)phenyl)benzamide], the pest or weed control at 50 µg/cm2 in test [1] and in test [2] was 50 to 100% in each case.
As for `CS(=O)(=O)c1ccc(NC(=O)[C@H]2[C@H](c3cc(Cl)cc(Cl)c3)C2(Cl)Cl)cc1C(=O)Nc1ccc(F)cc1` (relative stereo) [F157, trans-5-(2,2-dichloro-3-(3,5-dichlorophenyl)cyclopropane-1-carboxamido)-N-(4-fluorophenyl)-2-(methylsulfonyl)benzamide], the pest or weed control at 50 µg/cm2 in test [1] and in test [2] was 50 to 100% in each case.
With `C[S+]([O-])c1ccc(NC(=O)[C@H]2[C@H](c3cc(Cl)cc(Cl)c3)C2(Cl)Cl)cc1C(=O)Nc1ccc(F)cc1` (relative stereo) [F158, trans-5-(2,2-dichloro-3-(3,5-dichlorophenyl)cyclopropane-1-carboxamido)-N-(4-fluorophenyl)-2-(methylsulfinyl)benzamide], the pest or weed control at 50 µg/cm2 in test [1] and in test [2] was 50 to 100% throughout.
With `C[S+]([O-])c1ccc(NC(=O)c2cc(NC(=O)[C@H]3[C@H](c4cc(Cl)cc(Cl)c4)C3(Cl)Cl)ccc2Cl)cc1` (relative stereo) [F159, trans-2-Chloro-5-(2,2-dichloro-3-(3,5-dichlorophenyl)cyclopropane-1-carboxamido)-N-(4-(methylsulfinyl)phenyl)benzamide], the pest or weed control at 50 µg/cm2 in test [1] and in test [2] was 50 to 100% each time.
Consider `O=C(Nc1c(F)cccc1F)c1cc(NC(=O)[C@H]2[C@H](c3cc(F)cc(Cl)c3)C2(Cl)Cl)ccc1Cl` (relative stereo) [F160, trans-2-Chloro-5-(2,2-dichloro-3-(3-chloro-5-fluorophenyl)cyclopropane-1-carboxamido)-N-(2,6-difluorophenyl)benzamide], for which the pest or weed control at 50 µg/cm2 in test [1] and in test [2] was 50 to 100% throughout.
With `COc1c(Cl)cc([C@H]2[C@H](C(=O)Nc3ccc(Cl)c(C(=O)Nc4ccc(NC(C)=O)cc4)c3)C2(Cl)Cl)cc1Cl` (relative stereo) [F181, trans-N-(4-Acetamidophenyl)-2-chloro-5-(2,2-dichloro-3-(3,5-dichloro-4-methoxyphenyl)cyclopropane-1-carboxamido)benzamide], the pest or weed control at 50 µg/cm2 in test [1] and in test [2] was 50 to 100% each time.
For `CNc1ccc(NC(=O)c2cc(NC(=O)[C@H]3[C@H](c4cc(Cl)c(OC)c(Cl)c4)C3(Cl)Cl)ccc2Cl)cc1` (relative stereo) [F182, trans-2-Chloro-5-(2,2-dichloro-3-(3,5-dichloro-4-methoxyphenyl)cyclopropane-1-carboxamido)-N-(4-(methylamino)phenyl)benzamide], the pest or weed control at 50 µg/cm2 in test [1] and in test [2] was 50 to 100% each time.
For `CN(C(=O)[C@H]1[C@H](c2cc(Cl)cc(Cl)c2)C1(Cl)Cl)c1ccc(Cl)c(C(=O)Nc2ccc(F)cc2)c1` (relative stereo) [F183, trans-2-Chloro-5-(2,2-dichloro-3-(3,5-dichlorophenyl)-N-methylcyclopropane-1-carboxamido)-N-(4-fluorophenyl)benzamide], the pest or weed control at 50 µg/cm2 in test [1] and in test [2] was 50 to 100% each time.
Turning to `N#Cc1cc(F)ccc1NC(=O)c1cc(NC(=O)[C@H]2[C@H](c3cc(Cl)c(Cl)c(Cl)c3)C2(Cl)Cl)ccc1Cl` (relative stereo) [F191, trans-2-Chloro-N-(2-cyano-4-fluorophenyl)-5-(2,2-dichloro-3-(3,4,5-trichlorophenyl)cyclopropane-1-carboxamido)benzamide], the pest or weed control at 50 µg/cm2 in test [1] and in test [2] was 50 to 100% in each case.
In the case of `N#Cc1cc(F)ccc1NC(=O)c1cc(NC(=O)[C@H]2[C@H](c3ccc(F)c(Cl)c3)C2(Cl)Cl)ccc1Cl` (relative stereo) [F192, trans-2-Chloro-N-(2-cyano-4-fluorophenyl)-5-(2,2-dichloro-3-(3-chloro-4-fluorophenyl)cyclopropane-1-carboxamido)benzamide], the pest or weed control at 50 µg/cm2 in test [1] and in test [2] was 50 to 100% in each case.
As for `Cc1cc(N(C)C(=O)OC(C)(C)C)ccc1NC(=O)c1cc(NC(=O)[C@H]2[C@H](c3cc(Cl)cc(Cl)c3)C2(Cl)Cl)ccc1Cl` (relative stereo) [F198, trans-tert-Butyl-(4-(2-chloro-5-(2,2-dichloro-3-(3,5-dichlorophenyl)cyclopropane-1-carboxamido)benzamido)-3-methylphenyl)(methyl)carbamate], the pest or weed control at 50 µg/cm2 in test [1] and in test [2] was 50 to 100% in each case.
On to `CNc1cc(NC(=O)c2cc(NC(=O)[C@H]3[C@H](c4cc(Cl)cc(Cl)c4)C3(Cl)Cl)ccc2Cl)ccc1C` (relative stereo) [F207, trans-2-Chloro-5-(2,2-dichloro-3-(3,5-dichlorophenyl)cyclopropane-1-carboxamido)-N-(4-methyl-3-(methylamino)phenyl)benzamide], for which the pest or weed control at 50 µg/cm2 in test [1] and in test [2] was 50 to 100% throughout.
Regarding `Cc1cc(N(C)C(=O)OC(C)(C)C)ccc1NC(=O)c1cc(NC(=O)[C@H]2[C@H](c3cc(Cl)c(Cl)c(Cl)c3)C2(Cl)Cl)ccc1Cl` (relative stereo) [F218, trans-tert-Butyl-(4-(2-chloro-5-(2,2-dichloro-3-(3,4,5-trichlorophenyl)cyclopropane-1-carboxamido)benzamido)-3-methylphenyl)(methyl)carbamate], the pest or weed control at 50 µg/cm2 in test [1] and in test [2] was 50 to 100% in each case.
Consider `Cc1cc(N(C)C(=O)OC(C)(C)C)ccc1N(C)C(=O)c1cc(NC(=O)[C@H]2[C@H](c3cc(Cl)cc(Cl)c3)C2(Cl)Cl)ccc1Cl` (relative stereo) [F220, trans-tert-Butyl-(4-(2-chloro-5-(2,2-dichloro-3-(3,5-dichlorophenyl)cyclopropane-1-carboxamido)-N-methylbenzamido)-3-methylphenyl)(methyl)carbamate], for which the pest or weed control at 50 µg/cm2 in test [1] and in test [2] was 50 to 100% each time.
`CNc1ccc(N(C)C(=O)c2cc(NC(=O)[C@H]3[C@H](c4cc(Cl)cc(Cl)c4)C3(Cl)Cl)ccc2Cl)c(C)c1` (relative stereo) [F225, trans-2-Chloro-5-(2,2-dichloro-3-(3,5-dichlorophenyl)cyclopropane-1-carboxamido)-N-methyl-N-(2-methyl-4-(methylamino)phenyl)benzamide]: the pest or weed control at 50 µg/cm2 in test [1] and in test [2] was 50 to 100% throughout.
